In ChEMBL document CHEMBL4321836, “Discovery of BAY-298 and BAY-899: Tetrahydro-1,6-naphthyridine-Based, Potent, and Selective Antagonists of the Luteinizing Hormone Receptor Which Reduce Sex Hormone Levels in Vivo” (J Med Chem, 2019):

How the values were obtained:
[1] = biological target: T1, Lutropin-choriogonadotropic hormone receptor (Homo sapiens, UniProt P22888); assay: Agonist activity at human luteinizing hormone receptor incubated for 60 mins by cell based TR-FRET assay
Rattus norvegicus [2] = assay: Reversal of human luteinizing hormone-induced suppression of aromatase mRNA expression in cetrorelix-treated iv dosed female rat after 2 hrs by Taqman probe based RT-PCR analysis; type: functional, organism-based
Rattus norvegicus [3] = assay: Downregulation of human luteinizing hormone-induced RUNX1 mRNA expression in cetrorelix-treated iv dosed female rat after 2 hrs by Taqman probe based RT-PCR analysis; type: functional, organism-based
Rattus norvegicus [4] = assay: Downregulation of human luteinizing hormone-induced Egr-1 mRNA expression in cetrorelix-treated iv dosed female rat after 2 hrs by Taqman probe based RT-PCR analysis; type: functional, organism-based
[5] = biological target: T1, Lutropin-choriogonadotropic hormone receptor; assay: Negative allosteric modulation of human luteinizing hormone receptor assessed as Emax for glycoprotein human luteinizing hormone-induced agonist activity at 0.84 nM to 17 uM preincubated for 20 mins followed by 100 times EC80 of agonist addition and measured after 60 mins by cell based TR-FRET assay relative to control
[6] = biological target: Luteinizing hormone/choriogondaotropin receptor (Macaca fascicularis, UniProt F5A8F7); assay: Antagonist activity at cynomolgus monkey luteinizing hormone receptor expressed in HEK293 cells assessed as reduction in agonist-induced cAMP production preincubated for 30 mins followed by agonist solution addition and measured after 30 mins by cell based TR-FRET assay
Chain of Luteinizing hormone/choriogondaotropin receptor (F5A8F7 whole entry): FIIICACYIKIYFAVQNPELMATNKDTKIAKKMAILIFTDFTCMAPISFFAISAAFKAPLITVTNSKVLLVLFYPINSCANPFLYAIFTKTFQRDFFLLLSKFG

Rattus norvegicus [7] = assay: Downregulation of human luteinizing hormone-induced progesterone expression in plasma of cetrorelix-treated female rat at 4.5 mg/kg, iv after 2 hrs by radioimmunoassay method (reference value: 243 nM); type: functional
[8] = biological target: T1, Lutropin-choriogonadotropic hormone receptor; assay: Negative allosteric modulation of human luteinizing hormone receptor assessed as Emax for glycoprotein human luteinizing hormone-induced agonist activity at 0.84 nM to 17 uM preincubated for 20 mins followed by 4 times EC80 of agonist addition and measured after 60 mins by cell based TR-FRET assay relative to control
[9] = biological target: T1, Lutropin-choriogonadotropic hormone receptor; assay: Negative allosteric modulation of human luteinizing hormone receptor assessed as Emax for glycoprotein human luteinizing hormone-induced agonist activity at 0.84 nM to 17 uM preincubated for 20 mins followed by 16 times EC80 of agonist addition and measured after 60 mins by cell based TR-FRET assay relative to control; conditions: at 0.00084 to 17 µM
[10] = biological target: T1, Lutropin-choriogonadotropic hormone receptor; assay: Negative allosteric modulation of human luteinizing hormone receptor assessed as reduction in glycoprotein human luteinizing hormone-induced agonist activity preincubated for 20 mins followed by 4 times EC80 of agonist addition and measured after 60 mins by cell based TR-FRET assay relative to control
[11] = biological target: T1, Lutropin-choriogonadotropic hormone receptor; assay: Negative allosteric modulation of human luteinizing hormone receptor assessed as reduction in glycoprotein human luteinizing hormone-induced agonist activity preincubated for 20 mins followed by 10 times EC80 of agonist addition and measured after 60 mins by cell based TR-FRET assay relative to control
[12] = biological target: T1, Lutropin-choriogonadotropic hormone receptor; assay: Negative allosteric modulation of human luteinizing hormone receptor assessed as reduction in glycoprotein human luteinizing hormone-induced agonist activity preincubated for 20 mins followed by 16 times EC80 of agonist addition and measured after 60 mins by cell based TR-FRET assay relative to control
[13] = biological target: T1, Lutropin-choriogonadotropic hormone receptor; assay: Negative allosteric modulation of human luteinizing hormone receptor assessed as Emax for Org 43553-induced agonist activity at 0.84 nM to 17 uM preincubated for 20 mins followed by 4 times EC80 of agonist addition and measured after 60 mins by cell based TR-FRET assay relative to control
[14] = biological target: T1, Lutropin-choriogonadotropic hormone receptor; assay: Negative allosteric modulation of human luteinizing hormone receptor assessed as Emax for Org 43553-induced agonist activity at 0.84 nM to 17 uM preincubated for 20 mins followed by 100 times EC80 of agonist addition and measured after 60 mins by cell based TR-FRET assay relative to control
[15] = biological target: T1, Lutropin-choriogonadotropic hormone receptor; assay: Negative allosteric modulation of human luteinizing hormone receptor assessed as reduction in Org 43553-induced agonist activity preincubated for 20 mins followed by 4 times EC80 of agonist addition and measured after 60 mins by cell based TR-FRET assay relative to control
[16] = biological target: T1, Lutropin-choriogonadotropic hormone receptor; assay: Negative allosteric modulation of human luteinizing hormone receptor assessed as reduction in Org 43553-induced agonist activity preincubated for 20 mins followed by 10 times EC80 of agonist addition and measured after 60 mins by cell based TR-FRET assay relative to control
[17] = biological target: T1, Lutropin-choriogonadotropic hormone receptor; assay: Negative allosteric modulation of human luteinizing hormone receptor assessed as reduction in Org 43553-induced agonist activity preincubated for 20 mins followed by 16 times EC80 of agonist addition and measured after 60 mins by cell based TR-FRET assay relative to control
[18] = biological target: T1, Lutropin-choriogonadotropic hormone receptor; assay: Negative allosteric modulation of human luteinizing hormone receptor assessed as reduction in Org 43553-induced agonist activity preincubated for 20 mins followed by 100 times EC80 of agonist addition and measured after 60 mins by cell based TR-FRET assay relative to control
Rattus norvegicus [19] = assay: Downregulation of human luteinizing hormone-induced progesterone expression in plasma of cetrorelix-treated female rat at 14 mg/kg, iv after 2 hrs by radioimmunoassay method (reference value: 243 nM); type: functional
Rattus norvegicus [20] = assay: Downregulation of 0.1 ug human luteinizing hormone-induced testosterone expression in plasma of cetrorelix-treated male rat at 14 mg/kg, iv after 2 hrs by radioimmunoassay method (reference value: 33.4 nM); type: functional
Rattus norvegicus [21] = assay: Downregulation of 0.3 ug human luteinizing hormone-induced testosterone expression in plasma of cetrorelix-treated male rat at 14 mg/kg, iv after 2 hrs by radioimmunoassay method (reference value: 33.4 nM); type: functional
Rattus norvegicus [22] = assay: Downregulation of human luteinizing hormone-induced progesterone expression in plasma of cetrorelix-treated iv dosed female rat after 2 hrs by radioimmunoassay method; type: functional, organism-based
Rattus norvegicus [23] = assay: Downregulation of human luteinizing hormone-induced testosterone expression in plasma of cetrorelix-treated iv dosed male rat at after 2 hrs by radioimmunoassay method; type: functional, organism-based
Rattus norvegicus [24] = assay: Effect on folliculo-genesis in 4 day cycle of po dosed normally cycling female rat assessed as induction of cycle arrest in diestrus stage by observing vaginal smears administered once daily for 8 days; type: functional, organism-based
Rattus norvegicus [25] = assay: Effect on folliculo-genesis in 4 day cycle of po dosed normally cycling female rat assessed as induction of cycle arrest in metestrus stage by observing vaginal smears administered once daily for 8 days and measured for 2 cycle-stage; type: functional, organism-based
Rattus norvegicus [26] = assay: Downregulation of estradiol level in proestrus staged-female rat serum at 4.5 mg/kg, po administered once daily for 8 days and measured by radioimmunoassay method (reference value: 125 pmol/L); type: functional
Rattus norvegicus [27] = assay: Downregulation of estradiol level in proestrus staged-female rat serum at 9 mg/kg, po administered once daily for 8 days and measured by radioimmunoassay method (reference value: 125 pmol/L); type: functional
Rattus norvegicus [28] = assay: Downregulation of estradiol level in proestrus staged-female rat serum at 72 mg/kg, po administered once daily for 8 days and measured by radioimmunoassay method (reference value: 125 pmol/L); type: functional
[29] = Free plasma concentration in female rat at 4.5 to 72 mg/kg, po administered once daily for 8 days; type: ADME, organism-based; conditions: in vivo, 192 h
Rattus norvegicus [30] = assay: Downregulation of estradiol level in po dosed proestrus staged-female rat serum administered once daily for 8 days and measured by radioimmunoassay method; type: functional, organism-based

T1 sequence (P22888 whole entry): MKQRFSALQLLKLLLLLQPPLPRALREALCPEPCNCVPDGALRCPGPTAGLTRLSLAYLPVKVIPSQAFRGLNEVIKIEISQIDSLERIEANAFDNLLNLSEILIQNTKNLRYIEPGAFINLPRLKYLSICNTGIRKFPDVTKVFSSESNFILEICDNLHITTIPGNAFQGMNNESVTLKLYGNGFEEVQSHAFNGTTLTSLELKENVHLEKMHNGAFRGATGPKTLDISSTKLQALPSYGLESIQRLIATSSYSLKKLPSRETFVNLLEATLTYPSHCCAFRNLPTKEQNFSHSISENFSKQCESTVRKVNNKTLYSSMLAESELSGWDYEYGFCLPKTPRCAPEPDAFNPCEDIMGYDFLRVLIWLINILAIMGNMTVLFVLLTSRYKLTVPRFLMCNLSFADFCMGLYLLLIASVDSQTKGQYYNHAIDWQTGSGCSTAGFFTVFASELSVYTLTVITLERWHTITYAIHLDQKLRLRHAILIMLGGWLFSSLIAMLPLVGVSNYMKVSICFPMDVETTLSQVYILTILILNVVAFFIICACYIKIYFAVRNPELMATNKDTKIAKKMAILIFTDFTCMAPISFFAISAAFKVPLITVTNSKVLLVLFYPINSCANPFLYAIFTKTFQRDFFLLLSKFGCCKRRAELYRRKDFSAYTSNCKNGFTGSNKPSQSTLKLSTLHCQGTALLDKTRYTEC

O=C(Nc1ccc(Oc2ccc(F)cc2)cc1)N1CCc2ncccc2[C@@H]1c1ccc(Cl)cc1
EC50 [1]: > 16000 nM
Activity (Rattus norvegicus [2]): Dose-dependent effect
Activity (Rattus norvegicus [3]): Dose-dependent effect
Activity (Rattus norvegicus [4]): Dose-dependent effect
Emax [5]: 98%
IC50 [6]: 78 nM
Activity (Rattus norvegicus [7]): 76 nM
Emax [8]: 99%
Emax [9]: 109%
IC50 [10]: 200 nM
IC50 [11]: 2200 nM
IC50 [12]: 2200 nM
Emax [13]: 102%
Emax [14]: 93%
IC50 [15]: 1200 nM
IC50 [16]: 1500 nM
IC50 [17]: 1700 nM
IC50 [18]: 1500 nM
Activity (Rattus norvegicus [19]): 51 nM
Activity (Rattus norvegicus [20]): 2.5 nM
Activity (Rattus norvegicus [21]): 12.6 nM
Activity (Rattus norvegicus [22]): Dose-dependent effect
Activity (Rattus norvegicus [23]): Dose-dependent effect
Activity (Rattus norvegicus [24]): Dose-dependent effect
Activity (Rattus norvegicus [25]): Dose-dependent effect
Activity (Rattus norvegicus [26]): 118 pmol/L
Activity (Rattus norvegicus [27]): 80 pmol/L
Activity (Rattus norvegicus [28]): <39 pmol/L
Cp(f) [29]: 24 nM
Activity (Rattus norvegicus [30]): Dose-dependent effect
